One data set relates to ICR mice. As to conditions: male, mouse, in vivo, 14 days. The method, then: The potential acute toxicity of compound 6 was determined according to the Lorke’s method ([Lorke, 1983]). The evaluation was performed following the Official Mexican Norm for Laboratory Animal Care and Use (NOM-062-ZOO-1999), with international conventional codes for laboratory animal use, and approved by the Institutional Committee for Care and Use of Laboratory Animals (CICUAL-FQ), Facultad de Química, UNAM (FQ/CICUAL/440/21). […]. At the end of the experiments, the mice were euthanized by hypoxia in a CO2 chamber.
Compound 6 was fed by an intragastric route in two independent phases. In each case, 12 mice were divided into four groups (n = 3). In the first stage, the animals were treated with 10, 100, and 1,000 mg/kg; in the second phase, 1,600, 2,900, and 5,000 mg/kg were administered. The control animals were fed 0.05% Tween 80® in saline solution. The weight of the animals was measured daily for 14 days at each stage. At the end of the test, all animals were euthanized to obtain the lungs, heart, kidneys, and liver to detect macroscopic organ injury.

Another data set deals with T1, PTP1B (Homo sapiens, UniProt P18031).
T1 sequence (P18031 1-400): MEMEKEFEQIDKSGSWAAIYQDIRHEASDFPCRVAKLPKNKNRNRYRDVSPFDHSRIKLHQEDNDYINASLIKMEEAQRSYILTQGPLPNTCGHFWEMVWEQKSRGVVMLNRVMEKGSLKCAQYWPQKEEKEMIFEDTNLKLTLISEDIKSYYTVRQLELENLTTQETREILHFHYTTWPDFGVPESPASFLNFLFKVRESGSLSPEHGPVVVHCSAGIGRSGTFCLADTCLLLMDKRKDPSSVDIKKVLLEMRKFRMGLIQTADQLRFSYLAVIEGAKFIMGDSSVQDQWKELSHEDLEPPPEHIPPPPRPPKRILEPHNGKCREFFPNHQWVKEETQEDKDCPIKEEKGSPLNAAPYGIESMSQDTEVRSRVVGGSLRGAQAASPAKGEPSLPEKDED
Briefly: Kinetic analysis of PTP1B inhibition. The class given is biochemical. The method, then:
The conditions for preparing reagents (enzyme and substrate), incubation, and analysis of results were the same as that described in Section 2.1 ([Jiménez-Arreola et al., 2020]; [Díaz-Rojas et al., 2021]). Additional steps in the methodology are described below.
To characterize the type of inhibition exerted by 1, 3, and 6 on PTP1B, the hydrolysis of 4-NP at the sub-saturating state and increasing concentrations of each compound was measured. […] The compound concentration yielding 50% activity inhibition was interpolated from the results by fitting into a general inhibition model. The resulting set of activities was fitted globally using the non-linear regression algorithm of Levenberg–Marquardt as implemented in the Gnuplot ([Williams et al., 2017]). Each group was fitted to the kinetic equations for linear competitive, linear uncompetitive, linear non-competitive (classic), linear mixed type, parabolic competitive, parabolic uncompetitive, and parabolic non-competitive inhibition mechanisms. The best fit was ascertained by the reduced chi-squared (χ^2) value, residual distribution, and uncertainty in the parameter estimates. The best description of the inhibition data for compounds 1, 3, and 6 was obtained with Eq. 2, Eq. 3, and Eq. 4, respectively, where VMAX, KM, and KIcu, KIC, and KIU are the maximum velocity, Michaelis constant for the substrate 4-NP, and inhibition constants for each type of inhibition, respectively. v0=VMAX4NP/KM1+I/KIcu+4NP1+I/KIcu, (2) v0=VMAX4NP/KM1+I/KIC+4NP1+I/KIU, (3) v0=VMAX4NP/KM1+I/KIC+I^2/KIC2^2+4NP. (4)

In a further data set the target is T2, hPTP1B1-400 (Homo sapiens, UniProt P18031).
T2 sequence (P18031 1-400): T1 sequence (P18031 1-400)
Nature of the data set: PTP1B inhibition assay (spectrophotometric, 4-nitrophenyl phosphate). The class given is biochemical. The procedure:
The inhibitory activity was determined as a percentage compared to the blank (Buffer) according to the following equation: %InhibitionPTP1B=1−A405s/A405b×100%, (1) where A405(s) is the ΔA of the sample (At20 − At0), A405(b) is the ΔA of the blank obtained in the same manner as that of the sample. Using the data obtained, the enzyme inhibition curve was plotted, for which the average percentage of inhibition was plotted as a function of the inhibitor concentration.

SMILES strings stand for the structures. “And” between values parts separate entries of the source, which are not always exact repeats. Equal values may be shown once. Read-outs that look alike come from different tables or passages of the source.

As for `CC=CC1=CC=CC(=C2C(=O)CNC2=O)O1` [Compound 6, E/Z-vermelhotin], the LC50 entry in the data set with ICR mice is reported as “higher than 5,000 mg/kg”. The type of inhibition entry on PTP1B (double-reciprocal plots, global nonlinear fit) is on record as “competitive parabolic inhibition”. In addition, the VMAX at PTP1B (maximum velocity, nonlinear fit, substrate 4-NP) amounted to 24.7 mM/min. For the same compound, the Ki at PTP1B (mixed type (Eq. 3) or parabolic competitive model (Eq. 4), read-out: KIC) is 31 µM; at PTP1B (parabolic competitive model (Eq. 4), second inhibitor molecule, read-out: KIC2), 20 µM. Also, the IC50 is 0.0796 ± 0.0957 mM on hPTP1B1-400 (DoseResp model fit, Origin 8.0, axis C (mM), read-out: LOGx0 of the IC50 curve); 0.0796 ± 0.0001 mM at hPTP1B1-400 (enzyme 66 nM, 4-NP 0.125 mM, Tris-HCl pH 6.8, 20 min, room temperature, read-out: IC50); 0.0794 mM at hPTP1B1-400 (negative log of the IC50 in Molar, read-out: pIC50 (converted)). For the same compound, the “ΔA, activity difference between UA and the compound” value on hPTP1B1-400 (absolute pIC50 difference against ursolic acid) is 0.6 and 0.56.

The values are drawn from publication PMC10644722, “Discovery of inhibitors of protein tyrosine phosphatase 1B contained in a natural products library from Mexican medicinal plants and fungi using a combination of enzymatic and in silico methods**” (Frontiers in Pharmacology, 2023).
